Entries after “also recorded” stand apart in the source; their conditions may differ.
Legend:
[1] = system: 4T1 experimental metastases; experiment: 4T1 model of experimental metastasis (intracardiac injection); assay type: in vivo, mouse; conditions: 4T1 cells injected into left ventricle of the heart
Text: 1D11 was combined with paclitaxel in both a xenograft (MDA-MB-231) breast cancer model and the syngeneic 4T1 model of breast cancer. […] The MDA-MB-231 and 4T1 models were also used to test combinatorial therapies with 1D11 and the platinum compounds cisplatin or carboplatin.

[2] = system: subcutaneous 4T1 tumors; experiment: Study 3 (09-4255): primary tumor growth in the SQ 4T1 model; assay type: in vivo, BALB/c mice; conditions: for effect on SQ 4T1 primary tumor growth: antibody IP 3x/week, ixabepilone 3 mg/kg IV every four days x3, capecitabine 360 mg/kg oral 14 days; for day cohort reached size endpoint (mean tumor volume 1500 mm^3): per cohort
Text: The remaining 30 animals were included into a companion experiment to this study, looking for the effects of 1D11 on macrophage recruitment and activity (see below).
An entire cohort of mice was sacrificed when the average tumor volume for a single group within that cohort reached […] or greater.

[3] = system: subcutaneous 4T1 tumors; experiment: Study 2 (09-3494): primary tumor growth in the SQ 4T1 model; assay type: in vivo, Balb/c mice; conditions: for effect on SQ 4T1 primary tumor growth / tumor volume: antibody 10 mg/kg IP 3x/week, ixabepilone 3 mg/kg IV Q4Dx3, capecitabine 360 mg/kg oral QDx14, to Day 23
Text: Treatment groups, time points, and tissues were similar to the study described above.
For proper analysis of metastasis, all mice were sacrificed on study Day 23. […] The primary tumor was bisected, with one half frozen in OCT and the other half stored in RNALATER™ for qPCR analysis. The lungs were fixed in zinc-buffered formalin for enumeration of pulmonary mets and subsequent IHC analysis.

[4] = Study 2 (09-3494): toxicity observations; assay type: in vivo, Balb/c mice; conditions: ixabepilone 3 mg/kg, capecitabine 360 mg/kg, antibody 10 mg/kg
[5] = system: subcutaneous 4T1 tumors; experiment: Study 1 (09-3493): primary tumor growth, survival and time to endpoint in the syngeneic SQ 4T1 model; conditions: for effect on SQ 4T1 primary tumor growth: antibody 10 mg/kg IP 3x/week, ixabepilone 6 mg/kg IV Q4Dx3, capecitabine 360 mg/kg oral QDx14
Text: • Time points: Day 0: Investigators inject 50,000 4T1 cells+[…] ® subcutaneously in the right flank • Day 3: Investigators begin 2-3×/week tumor measurements • Day 6: DCM Staff begin antibody dosing IP 3×/week • DCM Staff begin ixabepilone dosing IV Q4D×3 • DCM Staff begin capecitabine dosing by oral gavage QD×14 • Animals were sacrificed when the primary tumors reached a volume of 2000 mm^3 or prior to the study takedown if they presented with moribund conditions (lack of grooming, labored breathing, cachexia, anorexia, or lethargy).
On Day 0, 150 twelve week-old female BALB/c mice each received subcutaneous injections of 50,000 4T1 cells in […] ® in the right flank. Tumor-bearing mice were routinely monitored and regular tumor measurements 2-3×/week were conducted beginning on Day 6. Tumor volume was determined using the following formula: Tumor Volume=Length×Width^2×0.52
Six days after tumor cell injection, when tumor volumes averaged 80 mm^3, the animals were size-matched and divided into twelve treatment groups of ten mice each. […] At this point investigators were blinded to treatment group designations and therapeutic administration was initiated. All mice received 10 mg/kg of either 1D11, 13C4 or antibody vehicle administered in 100 μl IP three times per week (Table 1). Specific cohorts of mice received additional treatments of ixabepilone (6 mg/kg in 200□1 IV Q4D×3), capecitabine (360 mg/kg in 100 μl by oral gavage QD×14) or both.
Mice were sacrificed once primary tumor volumes reached 2000 mm^3 or greater or if the tumors became ulcerated>20% of the tumor's surface area, or if the animals presented with moribund conditions (lack of grooming, labored breathing, cachexia, anorexia or lethargy). Upon sacrifice, gross necropsies were performed and tumors, lungs and other tissues bearing metastases were harvested.

[6] = Study 1 (09-3493): treatment-related adverse events; assay type: in vivo; conditions: ixabepilone 6 mg/kg, capecitabine 360 mg/kg, antibody 10 mg/kg
Text: • Time points: Day 0: Investigators inject 50,000 4T1 cells+[…] ® subcutaneously in the right flank • Day 3: Investigators begin 2-3×/week tumor measurements • Day 6: DCM Staff begin antibody dosing IP 3×/week • DCM Staff begin ixabepilone dosing IV Q4D×3 • DCM Staff begin capecitabine dosing by oral gavage QD×14 • Animals were sacrificed when the primary tumors reached a volume of 2000 mm^3 or prior to the study takedown if they presented with moribund conditions (lack of grooming, labored breathing, cachexia, anorexia, or lethargy). After sacrifice, the primary tumor was halved with one half embedded in OCT, and the other placed in zinc buffered formalin. The lungs and any other tissues bearing metastases were harvested and stored in zinc buffered formalin for enumeration of lung mets and IHC. • Tissues: Primary tumors m OCT and zinc buffered formalin, lungs harvested in zinc buffered formalin for assessment of metastasis and subsequent IHC.
Mice were sacrificed once primary tumor volumes reached 2000 mm^3 or greater or if the tumors became ulcerated>20% of the tumor's surface area, or if the animals presented with moribund conditions (lack of grooming, labored breathing, cachexia, anorexia or lethargy). Upon sacrifice, gross necropsies were performed and tumors, lungs and other tissues bearing metastases were harvested. […]

Row | SMILES | inhibition of metastases [1] | effect on SQ 4T1 primary tumor growth [2] | day cohort reached size endpoint (mean tumor volume 1500 mm^3) [2] [study day] | average size of the tumors at the time of study take down ([3]; Day 23, average of cohort (vehicle, 13C4 or 1D11 plus the chemotherapeutic)) [mm^3] | effect on SQ 4T1 primary tumor growth / tumor volume [3] | toxicity during dosing [4] | effect on SQ 4T1 primary tumor growth [5] | treatment-related toxicities [6] | survival ([5]; same dosing, sacrifice at tumor volume 2000 mm^3 or moribund)
1 | N.N.[Cl][Pt][Cl] [cisplatin] | able to inhibit metastases particularly to the bone | – | – | – | – | – | – | – | –
2 | CCCCCOC(=O)Nc1nc(=O)n([C@@H]2O[C@H](C)[C@@H](O)[C@H]2O)cc1F [capecitabine] | – | very modest tumor growth inhibition; also recorded: Inhibition of tumor growth; also recorded: inhibited 4T1 tumor growth slightly | 27 | ~700 | trend towards inhibited growth of the primary tumors; also recorded: Inhibition of tumor growth | no toxicity issues observed | did inhibit tumor growth; also recorded: Inhibition of tumor growth; also recorded: inhibited 4T1 tumor growth but was not as efficacious as ixabepilone | – | –
3 | C/C(=C\c1csc(C)n1)[C@@H]1C[C@@H]2O[C@]2(C)CCC[C@H](C)[C@H](O)[C@@H](C)C(=O)C(C)(C)[C@@H](O)CC(=O)N1 [ixabepilone] | – | most efficacious at inhibiting 4T1 tumor growth as a monotherapy; also recorded: Inhibition of tumor growth | 29 | – | significant reduction in tumor volume; also recorded: Inhibition of tumor growth | no toxicity issues observed; also recorded: no animals in the study displayed signs of toxicity | most efficacious at inhibiting 4T1 tumor growth compared to either antibody therapy or capecitabine; also recorded: Inhibition of tumor growth | some peripheral neuropathy | greater than that of either the antibody or the capecitabine cohorts
